The structures appear in SMILES notation. Values after ≈ are worked out from the molar mass of the structure shown. “Also recorded” adds a separate entry of the source. Counter-ions that a name gives are not always drawn.

The nature of series [1]: physchem. How it is done: The aliquot volumes were typically 25-100 μL.
From the infrared (IR) transmission data of the sample vials, dissolution and precipitation events were recorded as the point of complete transmission of IR and the onset of turbidity by IR respectively.
Samples were held at ambient temperature for 18 hours to maximize the chance of precipitation. Any recoverable solids were analyzed by XRPD.

Series [2] can be described thus: physchem. Particulars: water, thermodynamic from solid.
Protocol: The aliquot volumes were typically 10-20 μL. Complete dissolution of the test material was determined by visual inspection. The solubility was estimated from these experiments based on the total solvent used to provide complete dissolution.
Series [3] in a line: physchem. Particulars: 25 °C, pH 6.6, water, thermodynamic from solid. How it is done: The mixture was stirred and after 30 minutes a thick suspension was formed. Further aliquots (20 μL) of water were added until a fine suspension was formed. This was stirred at 25° C. overnight and filtered to yield a clear solution. The solution was weighed and evaporated to constant weight to determine the solubility.

Series [4] can be described thus: Humidity and temperature stressing of AAT-730 free base (XRPD, 1H NMR). Type of series: physicochemical. The note with it: for XRPD analysis of post-stressed sample (physical form): 7 days. How it is done:
The stability was also tested at a range of elevated relative humidity conditions for 7 days.

Series [5] in a line: Solubility estimation of AAT-730 by aliquot addition. Type of series: physicochemical. Particulars: for Solubility range: 20° C. The procedure: The aliquot volumes were typically 20-200 μL. […] Samples were held at ambient temperature for at least 18 hours to maximize the chance of precipitation. Any recoverable solids were analyzed by XRPD.
A short description of series [6]: Thermal stressing of AAT-730 free base forms (Method 2-9). Type of series: physicochemical. The note with it: for XRPD after thermal stress: sealed vial, several days.
Series [7] can be described thus: Salt screening experiments of AAT-730 (XRPD of isolated solids). Particulars: salt screen. The procedure: Solutions of the free base in the chosen solvent were added to either solutions of the salt former, or if the salt was not soluble in the solvent, slurries of the salt formers. Any solids which precipitated were recovered and analyzed by XRPD analysis to determine if the solid was crystalline.
The required acid (1 molar equivalent) was added to each HPLC vial and the API stock solution (containing 30 mg of API) was added. The mixtures were stirred at 300 rpm (ambient temperature) for up to 16 hours. Any solids which precipitated were isolated by centrifugation, solvent decanted and solids dried with thin strips of filter paper prior to analysis by XRPD. Any solutions were evaporated to dryness and solids analyzed by XRPD. Gels were either triturated or temperature cycled in MTBE.
API (30 mg), acid co-former (1 mol. eq.) and ethanol (300 μL) were added to HPLC vials and stirred at 40° C. for up to 16 hours. Solids were recovered by centrifugation, solvent decanted and dried with thin strips of filter paper prior to analysis by XRPD. Solutions were evaporated to dryness.
Gels isolated from the screening experiments were triturated in either MTBE or EtOAc to induce precipitation. MTBE or EtOAc (200 μL) was added to the gel and stirred at 40° C. for up to 3 hours prior to cooling to ambient and stirring for up to 48 hours. Any solids were isolated by centrifugation, solvent decanted and solids dried with thin strips of filter paper prior to analysis by XRPD. Any solutions were evaporated to dryness.
Gels isolated from screening experiments were temperature cycled in MTBE according to the following program: • Heating from 20° C. to 40° C. at 0.2° C./minute. • Cooling to 20° C. at 0.1° C./minute. • Stirring speed 400 rpm.
The vials were sealed and the contents milled using a Fritsch Pulverisette 5 planetary mill (30 repetitions of 20 minutes milling at 400 rpm and 20 minutes pause). The resultant material was analyzed using XRPD.
Some of the acid co-formers had pKa values which were suitable for forming either hemi or bis-salts and experiments were carried out using these acids. Crystalline solids were isolated from the experiments using 0.5 mol. eq. of EDSA but these appeared to be composed of polymorphs of the free base and salt formation hadn't occurred with 0.5 mol. eq. of EDSA. The EDSA salt formed with 2 mol. eq. of EDSA yielded solids with the same XRPD pattern as the mono-EDSA salt. Two different crystalline salts were isolated from the reactions with HCl and these may be the mono and bis-HCl salts, however stoichiometry cannot be determined by ^1H NMR. The salt formation with MSA yielded the bis-MSA salt and this is discussed in Example 3-16. The salt isolated with glutaric acid has the same XRPD pattern as the salt isolated with 1 mol. eq. of glutaric acid and is a mono-glutarate salt (Example 3-17). A solid was isolated from the experiment with 2 mol. eq. of sulfuric acid and this may be a sulfate.

Take `CN(C)CCn1c(CC(C)(C)C)nc2cc(S(=O)(=O)C3CN(CCO)C3)ccc21` [AAT-730 HCl salt Pattern 1]: the solubility entry in series [1] (DMSO/water (80/20), ambient temperature, aliquot addition) was “greater than or equal to 20 mg/mL”; in series [2], 164 to 205 mg/mL.
The compound `CN(C)CCn1c(CC(C)(C)C)nc2cc(S(=O)(=O)C3CN(CCO)C3)ccc21` [AAT-730 HCl salt Pattern 2] came in with a solubility in series [1] (pH 6, water, thermodynamic from solid, aqueous solubility, water, pH 6-7, aliquot addition) of 197 to 263 mg/mL.
As to `CN(C)CCn1c(CC(C)(C)C)nc2cc(S(=O)(=O)C3CN(CCO)C3)ccc21` [AAT-730 HCl salt, HCl salt of 2-[3-({1-[2-(dimethylamino)ethyl]-2-(2,2-dimethylpropyl)-1H-1,3-benzodiazol-5-yl}sulfonyl)azetidin-1-yl]ethan-1-ol], the thermodynamic solubility in series [3] is ~220 mg/mL. Further, the solubility in series [1] (20 °C, aqueous with cosolvent or surfactant or cyclodextrin, thermodynamic from solid, Solubility at 20° C., EtOH/water (50/50), aliquot addition) was 205 to 273 mg/mL; in series [1] (20 °C, organic solvent or mixture, thermodynamic from solid, Solubility at 20° C., DMSO/water (80/20, Aw at most 0.27), aliquot addition), 22 to 25 mg/mL; in series [1] (20 °C, organic solvent or mixture, thermodynamic from solid, Solubility at 20° C., THF/water (13/1, Aw at most 0.9), aliquot addition) it was < 20 mg/mL; in series [1] (20 °C, organic solvent or mixture, thermodynamic from solid, Solubility at 20° C., acetone, aliquot addition), < 20 mg/mL; in series [1] (20 °C, organic solvent or mixture, thermodynamic from solid, Solubility at 20° C., acetone/water (20/1, Aw at most 0.6), aliquot addition), < 20 mg/mL; in series [1] (20 °C, organic solvent or mixture, thermodynamic from solid, Solubility at 20° C., acetonitrile, aliquot addition) it was < 21 mg/mL. In addition, the solubility is < 20 mg/mL in series [1] (20 °C, organic solvent or mixture, thermodynamic from solid, Solubility at 20° C., dichloromethane, aliquot addition); < 21 mg/mL in series [1] (20 °C, organic solvent or mixture, thermodynamic from solid, Solubility at 20° C., ethanol, aliquot addition); < 20 mg/mL in series [1] (20 °C, organic solvent or mixture, thermodynamic from solid, Solubility at 20° C., methanol, aliquot addition); < 20 mg/mL in series [1] (20 °C, organic solvent or mixture, thermodynamic from solid, Solubility at 20° C., tetrahydrofuran, aliquot addition); ≥ 20 mg/mL in series [1] (aqueous with cosolvent or surfactant or cyclodextrin, thermodynamic from solid, solubility); ≥ 20 mg/mL in series [1] (organic solvent or mixture, thermodynamic from solid, solubility, DMSO/water (80/20), ambient temperature, aliquot addition).
With `CN(C)CCn1c(CC(C)(C)C)nc2cc(S(=O)(=O)C3CN(CCO)C3)ccc21` [AAT-730, 2-[3-({1-[2-(dimethylamino)ethyl]-2-(2,2-dimethylpropyl)-1H-1,3-benzodiazol-5-yl}sulfonyl)azetidin-1-yl]ethan-1-ol], the “1H NMR analysis of post-stressed samples” value in series [4] (1 week at 25° C./60% RH, 40° C./75% RH, 70° C./75% RH) is reported as “no change”. The “XRPD analysis of post-stressed sample (physical form)” value is on record as “remained as an anhydrate” in series [4] (25° C./60% RH); “change in form to the hydrate; also recorded: converted to a hydrate” in series [4] (40° C./75% RH, listed as AAT-730 free base); “change in form to the hydrate; also recorded: converted to a hydrate” in series [4] (70° C./75% RH, listed as AAT-730 free base). Further, the Solubility range was 81 to 87 mg/mL in series [5] (2-propanol, isopropyl alcohol (IPA)); 313 to 417 mg/mL in series [5] (EtOH/water (96/4, Aw at most 0.25)); 638 to 1275 mg/mL in series [5] (MeOH/water (84/16, Aw at most 0.44)); 410 to 615 mg/mL in series [5] (THF/water (96/4, Aw at most 0.74)); 118 to 157 mg/mL in series [5] (acetone); 618 to 1235 mg/mL in series [5] (acetone/water (50/50, Aw at most 0.91)). The Solubility range in series [5] (acetonitrile (ACN)) is 145 to 164 mg/mL; in series [5] (anisole) it was 58 to 60 mg/mL; in series [5] (cyclohexane) it was <24 mg/mL; in series [5] (dichloromethane (DCM)), 360 to 504 mg/mL; in series [5] (dimethyl sulfoxide (DMSO)) it was 242 to 303 mg/mL; in series [5] (dioxane), 117 to 129 mg/mL. Moreover, the Solubility range was 213 to 256 mg/mL in series [5] (ethanol (EtOH)); 27 to 28 mg/mL in series [5] (ethyl acetate (EtOAc)); >510 mg/mL in series [5] (methanol (MeOH)); <26 mg/mL in series [5] (methyl isobutyl ketone (MIBK)); <26 mg/mL in series [5] (methyl tert-butyl ether (MTBE)); 246 to 492 mg/mL in series [5] (tetrahydrofuran (THF)). The Solubility range in series [5] (toluene) is <25 mg/mL. Further, the solubility in series [5] (thermodynamic from solid, water, ambient temperature, aliquot addition, read-out: aqueous solubility) is 367 to 514 mg/mL (≈ 868 to 1220 mM). Further, the “XRPD after thermal stress” value in series [6] (40° C.) and in series [6] (60° C.) was “Pattern A +” throughout. Besides, in series [6] (at the temperatures tested (40 or 60° C.)), the “physical stability to thermal stressing” value is “physically unstable”. Besides, the “XRPD Result” value is on record as “AAT-730 EDSA” in series [7] (EDSA 2 mol. eq., THF, sample CAT0001E-019-04); “possible sulfate Pattern B” in series [7] (H2SO4 2 mol. eq., THF, sample CAT0001E-019-08); “AAT-730 HCl Pattern B” in series [7] (HCl 2 mol. eq., EtOH, sample CAT0001E-019-05B); “AAT-730 HCl Pattern A**” in series [7] (HCl 2 mol. eq., THF, sample CAT0001E-019-05); “API” in series [7] (L-aspartic acid 0.5 mol. eq., THF, sample CAT0001E-019-09); “API” in series [7] (L-glutamic acid 0.5 mol. eq., THF, sample CAT0001E-019-11). Also, the “XRPD Result” value in series [7] (MSA 2 mol. eq., THF, sample CAT0001E-019-06) was “AAT-730 MSA Pattern B”; in series [7] (glutaric acid 0.5 mol. eq., THF, sample CAT0001E-019-12) it was “AAT-730 glutarate”.

For orientation: solubility means the dissolved amount per volume that the medium holds. In general, solubility (thermodynamic) refers to the concentration in solution at equilibrium with solid.

The values are drawn from patent publication US12617776B2 (priority 2020, dated 2026).
